Results taken from PubChem BioAssay (NCI).
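Cells were grown in 96-well plates and exposed to each compound for 48 hours at five concentrations; endpoints were interpolated linearly between bracketing concentrations, or set to the highest concentration if not reached. GI50: concentration for 50% inhibition of growth. TGI is the concentration that stops growth completely.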

How the values were obtained:
Assay in all cases: NCI tumour cell line growth inhibition, 48 h; in the data active = GI50 below about 0.43 µM; inactive = the rest
SK-MEL-28 melanoma = test system: SK-MEL-28 melanoma
HT29 colon = test system: HT29 colon
NCI-H226 lung = test system: NCI-H226 lung
K-562 leukemia = test system: K-562 leukemia
A549 NSCLC = test system: A549 NSCLC
RXF 393 renal = test system: RXF 393 renal
UACC-62 melanoma = test system: UACC-62 melanoma
NCI/ADR-RES ovarian = test system: NCI/ADR-RES ovarian
SNB-75 CNS = test system: SNB-75 CNS
786-0 renal = test system: 786-0 renal
OVCAR-4 ovarian = test system: OVCAR-4 ovarian
SF-539 CNS = test system: SF-539 CNS
CCRF-CEM leukemia = test system: CCRF-CEM leukemia
NCI-H460 lung = test system: NCI-H460 lung
T-47D breast = test system: T-47D breast
OVCAR-5 ovarian = test system: OVCAR-5 ovarian
MALME-3M melanoma = test system: MALME-3M melanoma
MOLT-4 leukemia = test system: MOLT-4 leukemia
HS 578T breast = test system: HS 578T breast
SF-295 CNS = test system: SF-295 CNS
IGROV1 ovarian = test system: IGROV1 ovarian
SF-268 CNS = test system: SF-268 CNS
HOP-92 NSCLC = test system: HOP-92 NSCLC
BT-549 breast = test system: BT-549 breast
HL-60(TB) leukemia = test system: HL-60(TB) leukemia
ACHN renal = test system: ACHN renal
SR leukemia = test system: SR leukemia
HOP-62 NSCLC = test system: HOP-62 NSCLC
OVCAR-8 ovarian = test system: OVCAR-8 ovarian
NCI-H522 lung = test system: NCI-H522 lung
SN12C renal = test system: SN12C renal
DU-145 prostate = test system: DU-145 prostate
SK-MEL-5 melanoma = test system: SK-MEL-5 melanoma
SK-OV-3 ovarian = test system: SK-OV-3 ovarian
MCF7 breast = test system: MCF7 breast
RPMI-8226 leukemia = test system: RPMI-8226 leukemia
UO-31 renal = test system: UO-31 renal
CAKI-1 renal = test system: CAKI-1 renal
U251 CNS = test system: U251 CNS
HCT-15 colon = test system: HCT-15 colon
M14 melanoma = test system: M14 melanoma
SK-MEL-2 melanoma = test system: SK-MEL-2 melanoma
PC-3 prostate = test system: PC-3 prostate
MDA-MB-435 = test system: MDA-MB-435
COLO 205 colon = test system: COLO 205 colon
EKVX NSCLC = test system: EKVX NSCLC
HCC-2998 colon = test system: HCC-2998 colon
TK-10 renal = test system: TK-10 renal
SNB-19 CNS = test system: SNB-19 CNS
LOX IMVI melanoma = test system: LOX IMVI melanoma
MDA-MB-231 breast = test system: MDA-MB-231 breast
NCI-H23 lung = test system: NCI-H23 lung
SW-620 colon = test system: SW-620 colon
HCT-116 colon = test system: HCT-116 colon
KM12 colon = test system: KM12 colon
OVCAR-3 ovarian = test system: OVCAR-3 ovarian
A498 renal = test system: A498 renal
UACC-257 melanoma = test system: UACC-257 melanoma

COC(=O)COc1ccc(/C=C2/N=C(c3ccccc3)N(c3c(C)n(C)n(-c4ccccc4)c3=O)C2=O)cc1
36.5 µM: TGI (RXF 393 renal)
35.7 µM: TGI (HT29 colon)
30.5 µM: TGI (SF-268 CNS)
32.1 µM: TGI (UACC-62 melanoma)
33.4 µM: TGI (HCC-2998 colon)
50.2 µM: TGI (CCRF-CEM leukemia)
55.1 µM: TGI (HOP-92 NSCLC)
44.8 µM: TGI (RPMI-8226 leukemia)
31.4 µM: TGI (ACHN renal)
38 µM: TGI (SK-MEL-2 melanoma)
97.7 µM: TGI (HOP-62 NSCLC)
34.1 µM: TGI (TK-10 renal)
42.3 µM: TGI (IGROV1 ovarian)
69.3 µM: TGI (SR leukemia)
37.9 µM: TGI (SK-OV-3 ovarian) | TGI (PC-3 prostate)
32.3 µM: TGI (UO-31 renal)
30.2 µM: TGI (SF-539 CNS) | TGI (DU-145 prostate)
35.9 µM: TGI (COLO 205 colon)
49 µM: TGI (SN12C renal)
47 µM: TGI (MDA-MB-435)
inactive: GI50 (SK-MEL-28 melanoma) 16.8 µM | GI50 (HT29 colon) 18.3 µM | GI50 (NCI-H226 lung) 25.3 µM | GI50 (K-562 leukemia) 30.4 µM | GI50 (A549 NSCLC) > 100 µM | GI50 (RXF 393 renal) 19.4 µM | GI50 (UACC-62 melanoma) 17.6 µM | GI50 (NCI/ADR-RES ovarian) 54.8 µM | GI50 (SNB-75 CNS) 16.7 µM | GI50 (786-0 renal) 19.7 µM | GI50 (OVCAR-4 ovarian) 26.5 µM | GI50 (SF-539 CNS) 16.1 µM | GI50 (CCRF-CEM leukemia) 13.2 µM | GI50 (NCI-H460 lung) 26 µM | GI50 (T-47D breast) 21.3 µM | GI50 (OVCAR-5 ovarian) 62.4 µM | GI50 (MALME-3M melanoma) 19.7 µM | GI50 (MOLT-4 leukemia) 23 µM | GI50 (HS 578T breast) 24.7 µM | GI50 (SF-295 CNS) 33.5 µM | GI50 (IGROV1 ovarian) 23.6 µM | GI50 (SF-268 CNS) 12.8 µM | GI50 (HOP-92 NSCLC) 25.1 µM | GI50 (BT-549 breast) 17.1 µM | GI50 (HL-60(TB) leukemia) 26.2 µM | GI50 (ACHN renal) 17.6 µM | GI50 (SR leukemia) 23.1 µM | GI50 (HOP-62 NSCLC) 31.7 µM | GI50 (OVCAR-8 ovarian) 18.8 µM | GI50 (NCI-H522 lung) 17.8 µM | GI50 (SN12C renal) 22.5 µM | GI50 (DU-145 prostate) 16.6 µM | GI50 (SK-MEL-5 melanoma) 26 µM | GI50 (SK-OV-3 ovarian) 17.3 µM | GI50 (MCF7 breast) 14.1 µM | GI50 (RPMI-8226 leukemia) 21.7 µM | GI50 (UO-31 renal) 17 µM | GI50 (CAKI-1 renal) > 100 µM | GI50 (U251 CNS) 67.6 µM | GI50 (HCT-15 colon) 66.5 µM | GI50 (M14 melanoma) 32.5 µM | GI50 (SK-MEL-2 melanoma) 19.1 µM | GI50 (PC-3 prostate) 19.6 µM | GI50 (MDA-MB-435) 19.7 µM | GI50 (COLO 205 colon) 16 µM | GI50 (EKVX NSCLC) 37.8 µM | GI50 (HCC-2998 colon) 16.9 µM | GI50 (TK-10 renal) 18.5 µM | GI50 (SNB-19 CNS) 36.3 µM | GI50 (LOX IMVI melanoma) 18 µM | GI50 (MDA-MB-231 breast) 21.8 µM | GI50 (NCI-H23 lung) 57.5 µM | GI50 (SW-620 colon) 22 µM | GI50 (HCT-116 colon) 32.4 µM | GI50 (KM12 colon) 26.6 µM | GI50 (OVCAR-3 ovarian) 16.6 µM | GI50 (A498 renal) 26.1 µM
84.2 µM: TGI (KM12 colon)
42 µM: TGI (BT-549 breast)
45.1 µM: TGI (MDA-MB-231 breast)
61.2 µM: TGI (T-47D breast)
67.2 µM: TGI (HL-60(TB) leukemia)
30.7 µM: TGI (SNB-75 CNS) | TGI (OVCAR-3 ovarian)
63.5 µM: TGI (NCI-H226 lung)
30.9 µM: TGI (SK-MEL-28 melanoma)
37 µM: TGI (786-0 renal)
70.9 µM: TGI (OVCAR-4 ovarian)
> 100 µM: TGI (K-562 leukemia) | TGI (A549 NSCLC) | TGI (NCI/ADR-RES ovarian) | TGI (NCI-H460 lung) | TGI (OVCAR-5 ovarian) | TGI (SF-295 CNS) | TGI (CAKI-1 renal) | TGI (U251 CNS) | TGI (HCT-15 colon) | TGI (M14 melanoma) | TGI (EKVX NSCLC) | TGI (SNB-19 CNS) | TGI (NCI-H23 lung) | TGI (HCT-116 colon)
60.7 µM: TGI (SK-MEL-5 melanoma)
32.8 µM: TGI (LOX IMVI melanoma)
44.1 µM: TGI (A498 renal)
60.5 µM: TGI (HS 578T breast)
50.6 µM: TGI (SW-620 colon)
59.8 µM: TGI (MOLT-4 leukemia)
32.9 µM: TGI (MCF7 breast)
40.6 µM: TGI (MALME-3M melanoma)
33.7 µM: TGI (OVCAR-8 ovarian)
41 µM: TGI (NCI-H522 lung)

CCOC(=O)c1cc(C)nc2c1c(=O)n(-c1ccccc1)c(=O)n2CCCCN1CCN(c2ccccc2)CC1
65.2 µM: TGI (UO-31 renal)
> 100 µM: TGI (SK-MEL-28 melanoma) | TGI (HT29 colon) | TGI (NCI-H226 lung) | TGI (K-562 leukemia) | TGI (A549 NSCLC) | TGI (RXF 393 renal) | TGI (UACC-62 melanoma) | TGI (NCI/ADR-RES ovarian) | TGI (SNB-75 CNS) | TGI (786-0 renal) | TGI (OVCAR-4 ovarian) | TGI (T-47D breast) | TGI (OVCAR-5 ovarian) | TGI (MALME-3M melanoma) | TGI (MOLT-4 leukemia) | TGI (HS 578T breast) | TGI (SF-295 CNS) | TGI (IGROV1 ovarian) | TGI (SF-268 CNS) | TGI (HOP-92 NSCLC) | TGI (BT-549 breast) | TGI (ACHN renal) | TGI (HOP-62 NSCLC) | TGI (OVCAR-8 ovarian) | TGI (NCI-H522 lung) | TGI (SN12C renal) | TGI (DU-145 prostate) | TGI (SK-MEL-5 melanoma) | TGI (SK-OV-3 ovarian) | TGI (MCF7 breast) | TGI (U251 CNS) | TGI (HCT-15 colon) | TGI (M14 melanoma) | TGI (SK-MEL-2 melanoma) | TGI (PC-3 prostate) | TGI (MDA-MB-435) | TGI (COLO 205 colon) | TGI (EKVX NSCLC) | TGI (HCC-2998 colon) | TGI (TK-10 renal) | TGI (LOX IMVI melanoma) | TGI (MDA-MB-231 breast) | TGI (NCI-H23 lung) | TGI (SW-620 colon) | TGI (HCT-116 colon) | TGI (KM12 colon) | TGI (A498 renal)
48.4 µM: TGI (SR leukemia)
99.8 µM: TGI (UACC-257 melanoma)
77.3 µM: TGI (RPMI-8226 leukemia)
49.1 µM: TGI (HL-60(TB) leukemia)
